Source: patent publication US20250057913A1, “USE OF SOMATOSTATIN AGONIST IN THE TREATMENT OF SSTR3 EXPRESSING TUMORS” (ITALFARMACO SPA, priority 2021, published 2025)
*1 amine or outer side, *2 acyl side, *3 side chain or, on linkers, in order; H or OH if unused. Where a SMILES comes first, the peptide text is derived from it. Side-chain parts run from the residue outwards. [ ]: non-standard residue; d: D form. The star is where a group is joined. Ethylenediamine = C(CN[*:2])N[*:1]; Hyp = O=C(O)[C@@H]1C[C@@H](O)CN1; Phg = N[C@H](C(=O)O)c1ccccc1; CO = O=C([*:1])[*:2]; Bn = c1ccc(C*)cc1

Experiments:
[1] = target: SSTR2-tGFP (Homo sapiens, UniProt P30874); assay: Internalization of SSTR2 in U2OS transfected cells; format: cell-based; parameters: expressed in transfected cells; host or cells: U2OS
Excerpt: (§1) HEK293 cells transfected with human SSTRs, and U20S cells transfected with human GFP-tagged receptors (SSTR2-tGFP, SSTR3-tGFP, SSTR5-tGFP).

[2] = target: SSTR3-tGFP (Homo sapiens, UniProt P32745); assay: Internalization of SSTR3 in U2OS transfected cells; format: cell-based; parameters: expressed in transfected cells; host or cells: U2OS
Excerpt: as §1

[3] = test system: NT-3 cell line spheroids; assay: Cytotoxic activity on NT-3 cell line spheroids; format: cell-based, human; conditions: 2.56 μM, 18 days
Description: NT-3 well-differentiated pancreatic neuroendocrine (PanNET) cell line (32) is an in-vitro model for pancreatic tumours.
Said cells were cultured in RPMI 1640 Medium GlutaMAX™ with 10% FBS, 1% Penicillin/Streptomycin, 20ng/ml EGF (AF-100-15, Peprotech), 10 ng/ml FGF (100-18B, Peprotech).
3D spheroids were generated by seeding 2000 cells/well in a 96-well ULA plate (Corning). Four replicates for each condition were seeded.
The spheroid formation required 4 days before starting the treatment.
The treatment was repeated every 3 days by replacing 50% of the medium (to avoid spheroid removal) with new medium containing 2× desired drug concentration.
Spheroid morphology was monitored every day during the treatment and pictures were taken on day 0, 4, 7, 11, 14, 18. Day 0 corresponds to the first day of treatment. Pictures were taken from the same well every time point.

[4] = target: T1, SSTR2 (Homo sapiens, UniProt P30874); assay: SSTR2 phosphorylation in HEK293 transfected cells (phosphosite-specific antibodies); format: cell-based; parameters: expressed in transfected cells; conditions: 10 or 1 μM, 10 min at 37° C.
Description: (A) Schematic representation of the human SSTR2 receptor indicating all potential phosphate acceptor sites within the carboxyl-terminal tail. Epitopes of the phosphosite-specific antibodies are marked (-P). […] The levels of phosphorylated SSTR2 receptor were then determined using the phosphosite-specific anti-pS341/pS343, pT353/T354, pT356/T359 antibodies. […] Blots shown are representative of three independent experiments. The positions of molecular mass markers are indicated on the left (in kDa).

[5] = test system: Clinically Non-Functioning Pituitary Adenoma; conditions: Pasireotide LAR, NFPA patients; cited from earlier work
[6] = target: T2, SSTR5 (Homo sapiens, UniProt P35346)
Description: (§3) Therefore, G protein-signaling mediated by SSTR agonists was studied using a GIRK-based fluorescence membrane potential assay both in HEK293 cells transfected with hSSTR3, and in AtT20 wild-type as well as hSSTR3-transfected cells.

[7] = target: SSTR5-tGFP (Homo sapiens, UniProt P35346); assay: Internalization of SSTR5 in U2OS transfected cells; format: cell-based; parameters: expressed in transfected cells; host or cells: U2OS
Excerpt: as §1

[8] = target: T3, SSTR3 (Homo sapiens, UniProt P32745); assay: SSTR3 phosphorylation in HEK293 transfected cells (phosphosite-specific antibodies); format: cell-based; parameters: expressed in transfected cells; conditions: 10^−12 to 10^−5 M, 10 min at 37° C.
Description: The levels of phosphorylated SST3 receptor were then determined using the phosphosite-specific anti-pS337/pT341 or anti-pT348.
(§2) Finally, the SSTR5 pT333 phosphosite was only partially affected by all tested compounds, with Pasireotide showing the most pronounced effect (FIG. 9B, C).

[9] = target: T3, SSTR3; assay: GIRK-based fluorescence membrane potential assay, HEK293-GIRK2-GFP-HA-hSST3
Description: The concentrations used are indicated. […] Data points represent mean±S.E.M.
as §3

[10] = target: T1, SSTR2; assay: cell-based; parameters: expressed in transfected cells; host or cells: HEK293 co-expressing GIRK2-GFP
Description: as §3

[11] = test system: NFPAs in MENX (homozygous mutant) rats; conditions: female and male rats; cited from earlier work
[12] = target: T2, SSTR5; assay: SSTR5 phosphorylation in HEK293 transfected cells (anti-pT333); format: cell-based; parameters: expressed in transfected cells; conditions: 10 min at 37° C.
Excerpt: FIG. 9—Agonist-selective SSTR5 phosphorylation in HEK293 transfected cells. (A) Schematic representation of the human SSTR5 receptor indicating all potential phosphate acceptor site within the carboxyl-terminal tail. Epitope of the phosphosite-specific antibodies are marked (-P) . . . […] (C) Blots were subsequently stripped and reprobed with anti-HA antibody to confirm equal loading of the gels. Blots shown are representative of three independent experiments. The positions of molecular mass markers are indicated on the left (in kDa).
as §2

[13] = test system: opioid receptors; assay: single dose binding assays on opioid receptors; conditions: single dose 10^−5 M
[14] = target: wild-type hSSTR2 stably expressed in HEK293 cells (human) (UniProt P30874)
[15] = target: wild-type hSSTR3 stably expressed in HEK293 cells (human) (UniProt P32745)
[16] = target: wild-type hSSTR5 stably expressed in HEK293 cells (human) (UniProt P35346)

SSTR3-tGFP, sequence (P32745 whole entry): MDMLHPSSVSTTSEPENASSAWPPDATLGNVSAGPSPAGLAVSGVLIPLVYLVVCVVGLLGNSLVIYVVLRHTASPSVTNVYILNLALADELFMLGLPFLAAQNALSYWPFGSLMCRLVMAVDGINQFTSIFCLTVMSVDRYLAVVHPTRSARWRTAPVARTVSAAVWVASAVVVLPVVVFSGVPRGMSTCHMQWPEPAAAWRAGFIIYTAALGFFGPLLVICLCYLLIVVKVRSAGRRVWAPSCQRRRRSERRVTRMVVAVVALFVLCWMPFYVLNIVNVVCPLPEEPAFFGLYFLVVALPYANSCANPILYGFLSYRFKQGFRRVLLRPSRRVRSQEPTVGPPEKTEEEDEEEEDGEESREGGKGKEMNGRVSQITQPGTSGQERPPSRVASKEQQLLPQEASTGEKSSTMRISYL
T1 sequence (P30874 whole entry): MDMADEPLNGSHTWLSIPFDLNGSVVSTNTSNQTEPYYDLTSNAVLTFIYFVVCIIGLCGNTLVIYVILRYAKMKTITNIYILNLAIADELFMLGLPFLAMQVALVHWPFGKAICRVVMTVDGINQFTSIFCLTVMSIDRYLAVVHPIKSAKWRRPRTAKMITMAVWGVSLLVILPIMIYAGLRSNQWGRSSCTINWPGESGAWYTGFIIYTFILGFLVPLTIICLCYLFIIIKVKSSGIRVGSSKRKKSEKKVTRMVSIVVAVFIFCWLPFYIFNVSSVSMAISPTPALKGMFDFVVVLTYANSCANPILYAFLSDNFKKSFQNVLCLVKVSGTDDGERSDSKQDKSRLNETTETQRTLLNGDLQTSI
SSTR2-tGFP, sequence (P30874 whole entry): as above
T3 sequence (P32745 whole entry): as the sequence (P32745 whole entry) above
SSTR5-tGFP, sequence (P35346 whole entry): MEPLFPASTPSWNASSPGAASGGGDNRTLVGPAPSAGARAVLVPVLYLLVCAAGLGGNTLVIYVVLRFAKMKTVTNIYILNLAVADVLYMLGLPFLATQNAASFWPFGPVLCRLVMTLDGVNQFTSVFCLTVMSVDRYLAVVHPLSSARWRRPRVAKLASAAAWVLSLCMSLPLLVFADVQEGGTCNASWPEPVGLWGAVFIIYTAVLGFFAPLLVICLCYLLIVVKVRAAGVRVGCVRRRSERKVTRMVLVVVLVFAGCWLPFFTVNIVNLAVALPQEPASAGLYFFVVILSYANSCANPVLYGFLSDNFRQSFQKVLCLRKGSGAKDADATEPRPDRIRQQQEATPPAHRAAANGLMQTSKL
T2 sequence (P35346 whole entry): as above

| Compound | Mean of internalized fluorescence, SSTR2 ([1]; 1 μM) | Mean of internalized fluorescence, SSTR2 ([1]; 10 μM) | Mean of internalized fluorescence, SSTR3 ([2]; 1 μM) | Mean of internalized fluorescence, SSTR3 ([2]; 10 μM) | spheroid morphology at the highest concentration [3] | phosphorylation of SSTR2 (pS341/pS343, pT353/T354, pT356/T359) [4] | Compound activity (EC50 nM), GIRK membrane potential assay [14] | also measured |
| --- | --- | --- | --- | --- | --- | --- | --- | --- |
| C[C@@H](O)[C@@H]1NC(=O)[C@H](CCCCN)NC(=O)[C@@H](Cc2c[nH]c3ccccc23)NC(=O)[C@H](Cc2ccccc2)NC(=O)[C@@H](NC(=O)[C@H](N)Cc2ccccc2)CSSC[C@@H](C(=O)N[C@H](CO)[C@@H](C)O)NC1=O [Octreotide] | 74.1 AU | 81.0 AU | 43.4 AU | 55.2 AU | still maintain their morphology | full phosphorylation of SSTR2 | – | rank as SSTR2-tGFP internalization inducer [1]: most potent internalization inducer |
| NCCCC[C@@H]1NC(=O)[C@@H](Cc2c[nH]c3ccccc23)NC(=O)[C@H](c2ccccc2)NC(=O)[C@@H]2C[C@@H](OC(=O)NCCN)CN2C(=O)[C@H](Cc2ccccc2)NC(=O)[C@H](Cc2ccc(OCc3ccccc3)cc2)NC1=O [Pasireotide, reference compound] (cyclo([Hyp]([CO-Ethylenediamine])[Phg][dW]KY(Bn)F)) | 49.2 AU | 50.5 AU | 41.6 AU | 46.3 AU | still maintain their morphology | selective phosphorylation of S341/S343 | – | patients reaching a tumor size reduction at least 20% [5]: 16.7%; EC50 [6]: 0.0165 ± 0.0025 µM; Mean of internalized fluorescence, SSTR5 ([7]; 1 μM): 40.5 AU; Mean of internalized fluorescence, SSTR5 ([7]; 10 μM): 43.9 AU; phosphorylation of SSTR3 (pS337/pT341, pT348) [8]: weak effect; EC50 [9]: 0.063 ± 0.0075 µM; EC50 [10]: 0.06 ± 0.0163 µM; antitumor activity in the MENX model (published report) [11]: higher antitumor activity than Octreotide; phosphorylation of SSTR5 (pT333) [12]: more potent than ITF2984 and octreotide; replacement of agonists [13]: fully replace agonists |
| Octreotide (peptide) | – | – | – | – | – | – | 4 nM | – |
| Pasireotide (peptide) | – | – | – | – | – | – | 60 nM | Compound activity (EC50 nM), GIRK membrane potential assay [15]: 63 nM; Compound activity (EC50 nM), GIRK membrane potential assay [16]: 16.5 nM |
